Like-named read-outs stand apart in the source and are kept apart here.
Legend:
Assay type in all cases: in vivo
[1] = test system: Erysiphe graminis tritici (powdery mildew); assay: Test 1 greenhouse foliar spray screen, powdery mildew on wheat; settings: disease control rating, foliar spray on wheat, 400 ppm (+++ at 100 ppm)
[2] = test system: Pyricularia oryzae (rice blast); assay: whole plant or invertebrate; settings: disease control rating, foliar spray on rice, 400 ppm (+++ at 100 ppm)
[3] = test system: Puccinia recondita tritici (leaf rust); assay: Test 1 greenhouse foliar spray screen, leaf rust on wheat; settings: disease control rating, foliar spray on wheat, 400 ppm (+++ at 100 ppm)
[4] = test system: Botrytis cinerea (gray mold); assay: Test 1 greenhouse foliar spray screen, gray mold on grape berries; settings: disease control rating, spray on grape berries, 400 ppm (+++ at 100 ppm)
[5] = test system: Pseudoperonospora cubensis (downy mildew); assay: Test 1 greenhouse foliar spray screen, downy mildew on squash; settings: for DOWN MDEW: disease control rating, foliar spray on squash, 400 ppm (+++ at 100 ppm)
[6] = test system: Venturia inaequalis (apple scab); assay: Test 1 greenhouse foliar spray screen, apple scab on apple seedling; settings: disease control rating, foliar spray on apple seedling, 400 ppm (+++ at 100 ppm)
[7] = test system: Septoria tritici (leaf blotch); assay: Test 1 greenhouse foliar spray screen, leaf blotch on wheat; settings: disease control rating, foliar spray on wheat, 400 ppm (+++ at 100 ppm)
[8] = test system: southern armyworm (Spodopetra eridania Cramer); assay: Mite/insect screen, SAW; settings: Spodoptera eridania, percent mortality, read-out: SAW RESULTS %
How it was run: (§1)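 First, each compound was dissolved in an emulsifier-containing acetone/alcohol mixture and diluted with water. Next, leaves were sprayed until runoff and left to dry for an hour. For southern armyworm, two excised uninfested leaves went into a Petri dish with larvae; percent mortality followed standard exposure periods.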

[9] = test system: Twospotted spider mites (Tetranychus urticae Koch); assay: Mite/insect screen, SM; settings: Tetranychus urticae, percent mortality, read-out: SM RESULTS %
How it was run: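 Read-out: percent mortality after standard exposure periods. Test solutions were water dilutions of compound dissolved in acetone/alcohol (50:50) with emulsifier blends; leaves were sprayed to runoff on both surfaces and air-dried for one hour before exposure.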

[10] = test system: melon aphids (Aphis gossypii Glover); assay: Mite/insect screen, MA; settings: Aphis gossypii, percent mortality, read-out: MA RESULTS %
How it was run: as §1

[11] = test system: corn rootworm; assay: Mite/insect screen, CRW; settings: percent mortality, read-out: CRW RESULTS %
How it was run: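 Stock in acetone:alcohol 1:1 + TOXIMUL R 23 g/L + TOXIMUL S 13 g/L; diluted with water to indicated concentrations; mortality (%) after standard exposure.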

[12] = foliar, rate 200 ppm, foliar spray on squash

Structure (SMILES): Cc1cc(C)c2nccc(NCCc3ccccc3)c2c1 [Example 28, 6,8-dimethyl-N-(2-phenylethyl)-4-quinolinamine]
- POWD MDEW [1]: + (20-89% control at 400 ppm)
- RICE BLAST [2]: ++ (90-100% control at 400 ppm)
- LEAF RUST [3]: + (20-89% control at 400 ppm)
- GRAY MOLD [4]: - (0-19% control at 400 ppm)
- DOWN MDEW [5]: +++ (90-100% control at 100 ppm)
- APPL SCAB [6]: - (0-19% control at 400 ppm)
- LEAF BLOT [7]: - (0-19% control at 400 ppm)
- mortality at 200 ppm ([8]; SAW, SM & MA RATE 200 PPM): 0%
- mortality at 200 ppm ([9]; SAW, SM & MA RATE 200 PPM): 0%
- mortality at 200 ppm ([10]; SAW, SM & MA RATE 200 PPM): 0%
- mortality at 12 ppm ([11]; CRW RATE 12.00 PPM): 0%

Structure (SMILES): Cc1ccc2nccc(NCCc3ccccc3)c2c1 [Example 30, 6-methyl-N-(2-phenylethyl)-4-quinolinamine]
- POWD MDEW [1]: - (0-19% control at 400 ppm)
- RICE BLAST [2]: + (20-89% control at 400 ppm)
- LEAF RUST [3]: + (20-89% control at 400 ppm)
- GRAY MOLD [4]: - (0-19% control at 400 ppm)
- DOWN MDEW [5]: +++ (90-100% control at 100 ppm)
- APPL SCAB [6]: - (0-19% control at 400 ppm)
- LEAF BLOT [7]: - (0-19% control at 400 ppm)
- mortality at 200 ppm ([8]; SAW, SM & MA RATE 200 PPM): 0%
- mortality at 200 ppm ([9]; SAW, SM & MA RATE 200 PPM): 0%
- mortality at 200 ppm ([10]; SAW, SM & MA RATE 200 PPM): 0%
- mortality at 12 ppm ([11]; CRW RATE 12.00 PPM): 0%

Structure (SMILES): Clc1ccc2c(NCCc3ccccc3)ccnc2c1 [Example 31, 7-chloro-N-(2-phenylethyl)-4-quinolinamine]
- POWD MDEW [1]: ++ (90-100% control at 400 ppm)
- RICE BLAST [2]: + (20-89% control at 400 ppm)
- LEAF RUST [3]: + (20-89% control at 400 ppm)
- GRAY MOLD [4]: - (0-19% control at 400 ppm)
- DOWN MDEW [5]: +++ (90-100% control at 100 ppm)
- APPL SCAB [6]: - (0-19% control at 400 ppm)
- LEAF BLOT [7]: - (0-19% control at 400 ppm)
- mortality at 200 ppm ([8]; SAW, SM & MA RATE 200 PPM): 0%
- mortality at 200 ppm ([9]; SAW, SM & MA RATE 200 PPM): 0%
- mortality at 200 ppm ([10]; SAW, SM & MA RATE 200 PPM): 0%
- mortality at 12 ppm ([11]; CRW RATE 12.00 PPM): 0%

Structure (SMILES): Cc1ccc2c(NCCc3ccccc3)ccnc2c1C [Example 32, 7,8-dimethyl-N-(2-phenylethyl)-4-quinolinamine]
- POWD MDEW [1]: + (20-89% control at 400 ppm)
- RICE BLAST [2]: + (20-89% control at 400 ppm)
- LEAF RUST [3]: - (0-19% control at 400 ppm)
- GRAY MOLD [4]: - (0-19% control at 400 ppm)
- DOWN MDEW [5]: +++ (90-100% control at 100 ppm)
- APPL SCAB [6]: - (0-19% control at 400 ppm)
- LEAF BLOT [7]: - (0-19% control at 400 ppm)
- mortality at 200 ppm ([8]; SAW, SM & MA RATE 200 PPM): 0%
- mortality at 200 ppm ([9]; SAW, SM & MA RATE 200 PPM): 0%
- mortality at 200 ppm ([10]; SAW, SM & MA RATE 200 PPM): 0%
- mortality at 12 ppm ([11]; CRW RATE 12.00 PPM): 0%

Structure (SMILES): Clc1cccc2c(NCCc3ccccc3)ccnc12 [Example 33, 8-chloro-N-(2-phenylethyl)-4-quinolinamine]
- POWD MDEW [1]: - (0-19% control at 400 ppm)
- RICE BLAST [2]: + (20-89% control at 400 ppm)
- LEAF RUST [3]: + (20-89% control at 400 ppm)
- GRAY MOLD [4]: - (0-19% control at 400 ppm)
- DOWN MDEW [5]: +++ (90-100% control at 100 ppm)
- activity against downy mildew ([5]; summary statement in the description): particularly excellent activity
- APPL SCAB [6]: - (0-19% control at 400 ppm)
- LEAF BLOT [7]: - (0-19% control at 400 ppm)
- mortality at 200 ppm ([8]; SAW, SM & MA RATE 200 PPM): 0%
- mortality at 200 ppm ([9]; SAW, SM & MA RATE 200 PPM): 0%
- mortality at 200 ppm ([10]; SAW, SM & MA RATE 200 PPM): 0%
- mortality at 12 ppm ([11]; CRW RATE 12.00 PPM): 0%

Structure (SMILES): c1ccc(CCNc2cc(NCCc3ccccc3)c3ccccc3n2)cc1 [Example 181, N,N'-bis(2-phenylethyl)-2,4-quinolinediamine]
- POWD MDEW [1]: + (20-89% control at 400 ppm)
- RICE BLAST [2]: + (20-89% control at 400 ppm)
- LEAF RUST [3]: + (20-89% control at 400 ppm)
- GRAY MOLD [4]: - (0-19% control at 400 ppm)
- DOWN MDEW [5]: +++ (90-100% control at 100 ppm)
- APPL SCAB [6]: - (0-19% control at 400 ppm)
- LEAF BLOT [7]: - (0-19% control at 400 ppm)
- mortality at 200 ppm [8, 12]: 0%
- mortality at 200 ppm [9, 12]: 0%
- mortality at 200 ppm [10, 12]: 0%
- mortality at 12 ppm ([11]; CRW rate 12.00 ppm): 0%

Source: patent EP0326331B1, “Substituted quinolines and cinnolines” (Dow AgroSciences LLC, priority 1988, dated 1989)
